The record followed here is patent US20190021995A1, “FORMULATION FOR TREATMENT OF PERIPHERAL JOINTS, SPINAL JOINTS AND/OR EXTRACELLULAR MATRIX ELEMENTS OF CONNECTIVE TISSUE, METHOD OF MANUFACTURE AND USES” (priority 2015, published 2019).

Structures are written as SMILES.

A short description of this data set: Studies of glucosamine salts delivered by the transdermal delivery system. The source says:
In accordance with the present invention, the above-indicated studies have shown that the transdermal delivery system described above can be used for delivering, for example, any glucosamine salt such as glucosamine hydrochloride, glucosamine sulfate, glucosamine sulfate stabilized with sodium chloride or potassium chloride.

For the compound `N[C@H]1C(O)O[C@H](CO)[C@@H](O)[C@@H]1O.O=S(=O)(O)O.[Cl-].[K+]` (stereo partly shown) [glucosamine sulfate potassium chloride], the “bioavailability of glucosamine in blood plasma and synovial fluid among glucosamine salts” value is given as “maximal bioavailability”.
